Experimental data published in paper PMC10584170, “Machine learning-based phenotypic imaging to characterise the targetable biology of Plasmodium falciparum male gametocytes for the development of transmission-blocking antimalarials” (PLOS Pathogens, 2023).
Where two headings read alike, the source gives them in different places.

Experiments:
[1] = test system: P. falciparum male gametocytes; assay: P. falciparum Dual Gamete Formation Assay (PfDGFA), male readout (exflagellation); type: cell-based, Plasmodium falciparum NF54; conditions: for Selectivity Ratio M: HepG2 Tox50 versus male IC50; for IC50: PfDGFA, 24 h incubation with gametocytes before induction, exflagellation readout, read-out: Male IC50; for HitlevelM: number of replicates with >50% inhibition in the male readout
Summary of the method: (§1)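 First, day-14 P. falciparum NF54 gametocytes receive compound for 24 h at 37°C in 1% O2/3% CO2. Next, ookinete medium with Cy3 anti-Pfs25 triggers gametogenesis at 28°C and male exflagellation is imaged. Finally, after 24 h in the dark, Cy3-labelled females are imaged.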

[2] = test system: P. falciparum female gametocytes; assay: P. falciparum Dual Gamete Formation Assay (PfDGFA), female readout (Pfs25-positive female gametes); type: cell-based, Plasmodium falciparum NF54; conditions: for Selectivity ratio F: HepG2 Tox50 versus female IC50; for IC50: PfDGFA, 24 h incubation with gametocytes before induction, female gamete readout, read-out: Female IC50; for HitlevelF: number of replicates with >50% inhibition in the female readout
Summary of the method: as §1

[3] = test system: HepG2 cells; assay: HepG2 cytotoxicity counter-screen; conditions: cytotoxic activity against HepG2 cells
[4] = PfDGFA at 2µM, 24h preincubation with gametocytes, average of replicates
[5] = PfDGFA at 2µM, 24h preincubation with gametocytes, replicate R1
[6] = PfDGFA at 2µM, 24h preincubation with gametocytes, replicate R3
[7] = PfDGFA at 2µM, 24h preincubation with gametocytes, replicate R4
[8] = Plasmodium falciparum, 2µM, 24h preincubation with gametocytes, average of replicates, read-out: Average inhibition male (%)
[9] = Plasmodium falciparum, 2µM, 24h preincubation with gametocytes, replicate R1, read-out: % inhibition male (individual replicates) R1
[10] = Plasmodium falciparum, 2µM, 24h preincubation with gametocytes, replicate R2, read-out: % inhibition male (individual replicates) R2
[11] = Plasmodium falciparum, 2µM, 24h preincubation with gametocytes, replicate R3, read-out: % inhibition male (individual replicates) R3
[12] = Plasmodium falciparum, 2µM, 24h preincubation with gametocytes, replicate R4, read-out: % inhibition male (individual replicates) R4
[13] = Plasmodium falciparum, 2µM, 24h preincubation with gametocytes, average of replicates, read-out: Average inhibition female (%)
[14] = Plasmodium falciparum, 2µM, 24h preincubation with gametocytes, replicate R1, read-out: % inhibition female (individual replicates) R1
[15] = Plasmodium falciparum, 2µM, 24h preincubation with gametocytes, replicate R2, read-out: % inhibition female (individual replicates) R2
[16] = Plasmodium falciparum, 2µM, 24h preincubation with gametocytes, replicate R3, read-out: % inhibition female (individual replicates) R3
[17] = Plasmodium falciparum, 2µM, 24h preincubation with gametocytes, replicate R4, read-out: % inhibition female (individual replicates) R4
[18] = 2µM, 24h preincubation with gametocytes, average of replicates
[19] = 2µM, 24h preincubation with gametocytes, replicate R1
[20] = 2µM, 24h preincubation with gametocytes, replicate R4
[21] = 2µM, 24h preincubation with gametocytes prior to induction of gametogenesis, average of replicates
[22] = 2µM, 24h preincubation with gametocytes prior to induction of gametogenesis, replicate R1
[23] = 2µM, 24h preincubation with gametocytes prior to induction of gametogenesis, replicate R3
[24] = 2µM, 24h preincubation with gametocytes prior to induction of gametogenesis, replicate R4

Compound | Selectivity Ratio M [1] | IC50 [1] [nM] | Selectivity ratio F [2] | IC50 [2] [nM] | Tox50 [3] [µM] | inhibition at 2 µM [1, 8] [%] | inhibition at 2 µM [1, 9] [%] | inhibition at 2 µM [1, 10] [%] | inhibition at 2 µM [1, 11] [%] | inhibition at 2 µM [1, 12] [%] | IC50 ([1]; Plasmodium falciparum) [nM] | inhibition at 2 µM [2, 13] [%] | inhibition at 2 µM [2, 14] [%] | inhibition at 2 µM [2, 15] [%] | inhibition at 2 µM [2, 16] [%] | inhibition at 2 µM [2, 17] [%] | IC50 ([2]; Plasmodium falciparum) [nM] | also measured
CCN1CCN(c2ccc(Nc3c4ccccc4nc4ccccc34)cc2)CC1 [TCMDC-124255] | 8.44 | 1770 | 2.14 | 6980 | 14.96 | – | – | – | – | – | – | – | – | – | – | – | – | Average inhibition male (%) [1, 4]: 77.2%; % inhibition male (individual replicates) R1 [1, 5]: 84.6%; % inhibition male (individual replicates) R3 [1, 6]: 78.3%; % inhibition male (individual replicates) R4 [1, 7]: 87.4%; HitlevelM ([1]; 2µM): 4; Average inhibition female (%) [2, 4]: -4.4%; % inhibition female (individual replicates) R1 [2, 5]: -2.2%; % inhibition female (individual replicates) R3 [2, 6]: -22.1%; % inhibition female (individual replicates) R4 [2, 7]: 3.0%; HitlevelF ([2]; 2µM): 0
O=C1Nc2ccccc2C1=NNC(=S)N1CCOCC1 [TCMDC-124263] | 49.26 | – | 25.94 | – | 46.3 | 98.7 | 98.4 | 100 | 99.2 | 96.9 | 940 | 55.9 | 38.4 | 72 | 48.4 | 64.6 | 1780 | –
Cl.Cl.c1ccc2c(NCCCCCCNc3c4ccccc4nc4ccccc34)c3ccccc3nc2c1 [TCMDC-124285] | 3.7 | 1680 | 1.95 | 3180 | 6.2 | – | – | – | – | – | – | – | – | – | – | – | – | Average inhibition male (%) [1, 18]: 93.2%; % inhibition male (individual replicates) R1 [1, 19]: 96.3%; % inhibition male (individual replicates) R4 [1, 20]: 88.4%; Average inhibition female (%) [2, 18]: 50.4%; % inhibition female (individual replicates) R1 [2, 19]: 48.2%; % inhibition female (individual replicates) R3 ([2]; 2µM, 24h preincubation with gametocytes, replicate R3): 44.8%; % inhibition female (individual replicates) R4 [2, 20]: 50.1%
Cl.c1ccc2c(NCCCCCCCCCNc3c4ccccc4nc4ccccc34)c3ccccc3nc2c1 [TCMDC-124286] | 3.22 | 1960 | 1.31 | 4810 | 6.29 | – | – | – | – | – | – | – | – | – | – | – | – | Average inhibition male (%) [1, 21]: 61.5%; % inhibition male (individual replicates) R1 [1, 22]: 79.2%; % inhibition male (individual replicates) R3 [1, 23]: 1.0%; % inhibition male (individual replicates) R4 [1, 24]: 84.9%; HitlevelM ([1]; 2µM, 24h preincubation): 3; Average inhibition female (%) [2, 21]: 43.1%; % inhibition female (individual replicates) R1 [2, 22]: 36.0%; % inhibition female (individual replicates) R3 [2, 23]: 18.9%; % inhibition female (individual replicates) R4 [2, 24]: 71.3%; HitlevelF ([2]; 2µM, 24h preincubation): 1
C=CCN(C(=O)c1ccc(Cl)c([N+](=O)[O-])c1)c1nc(-c2ccccc2)cs1 [TCMDC-124436] | 69.29 | – | 88.48 | – | 27.57 | 99.6 | 99.4 | 98.5 | 102 | 98.2 | 400 | 53 | 34.2 | 85.7 | 53.1 | 38.9 | 310 | –
